The text below walks through data of patent US6583122B2, “Nucleosides and oligonucleotides containing boron clusters” (Emory University, priority 1993, dated 2003).

What is called Tm is the temperature at the midpoint of the melting transition.

One data set deals with YMDD motif of HIV-1 RT. Description: In vitro site directed mutagenesis of HIV-1 reverse transcriptase gene, transformation into E. coli and sequencing. The note with it: sequencing of mutants; for amino acid change: YMDD motif. In kind it is cell-based. From the text:
Example 6 describes the in vivo mutation of the RT gene within the YMDD motif, incorporated into a proper vector in E. coli cells. The mutagenic oligonucleotide DNA target region is the conserved YMDD motif (nucleotides 5′ 2678 to 3′ 2689) of HIV-1 RT. The mutagenic oligonucleotides used were
The procedure for in vitro site directed mutagenesis used in this experiment was a modification of that used in the Altered Sites mutagenesis Kit #Q6210 (Promega Corp., Madison, Wis.). Briefly, oligonucleotides, 5′-AATACATGGA(CDU)GATTTGTAT-3′ (SEQ ID NO:1) and 5′-AATACATGG(CDU)(CDU)GATTTGTAT-3′ (SEQ ID NO:2), and a control, located on the putative catalytic active site for HIV-1 RT (5′-2676 to 3′-2696) were 5′ phosphorylated using T4 polynucleotide kinase. The reaction was terminated by heating to 70° C. for 10 min. The mutagenesis annealing reaction was performed by adding 0.05 pmol of pHIVALT-1 ssDNA, 0.25 pmol ampicillin repair oligonucleotide (supplied in the kit), 1.25 pmol of the 5′ phosphorylated mutagenic oligo, and an annealing buffer supplied in the kit in a final volume of 20 μL. The control oligonucleotide reactions for this experiment were done separately along with an added reaction that contained ampicillin repair oligo but no mutagenic oligo 5′-AATACATGGA(CDU)GATTTGTAT-3′ (SEQ ID NO: 1) and 5′-AATACATGG(CDU)(CDU) GATTTGTAT-3′ (SEQ ID NO:2) and control unmodified. The reactions were then heated to 70° C. for 5 min and allowed to cool to room temperature over a 15-20 min period. The annealing reactions were placed on ice and the following reagents were added: 3 μL 10× synthesis buffer (supplied in kit), 1 μL T4 DNA polymerase (10 U/μL ), 1 μL T4 DNA ligase (2 U/μL ), and 5 μL sterile dHO. The 30 μL reaction was incubated at 37° C. for 90 min to perform second strand synthesis and ligation. […]

Data set [1] deals with calf spleen phosphodiesterase. Description: Resistance to calf spleen phosphodiesterase. It is filed as in vitro ADME. The note with it: in words.
Data set [2] relates to Phosphodiesterase I (EC 3.1.4.1) type VIII from Crotalus durissus terrificus venom. Description: Stability towards snake venom phosphodiesterase (SVPD) 3′-exonuclease, HPLC. It is filed as in vitro ADME. The note with it: for % remaining: SVPDE; for T½: degradation by SVPDE, disappearance of 12-mer (11-mer for CDU-modified oligos). As to the method: Resistance of dodeca (thymidine phosphates) containing CDU (19-24) against phosphodiesterase I (EC 3.1.4.1): To 100 mM Tris-HCl buffer, pH 8.9 (90 μL) containing 20 mM MgCl2, 0.1 A260 ODU of oligonucleotide 19-24 (5 μL), 1.5×10-3 unit (5 μL) of phosphodiesterase was added. A blank with no enzyme, and a control reaction with d(T)12 were assayed simultaneously. Reactions were maintained at 37° C. for 10 minutes and then 50 μL aliquots were analyzed by HPLC under conditions described above.
The replacement of all natural phosphodiester linkages within oligonucleotide chain by methylphosphonate ones is an example of modifications that ensure complete stability of the oligonucleotide towards exo- and endonucleases. To test the resistance of CDU-oligonucleotides towards 3′-exonucleolytic activity (hydrolysis of the oligonucleotide from 3′-end), snake venom phosphodiesterase (SVPD) from Crotalus durissus terrificus was used. It was discovered that these oligonucleotides are remarkably stable to 3′-exonucleases if the CDU residue is incorporated in the 3′- or both 3′- and 5′-end. The oligonucleotide bearing both 3′- and 5′-modifications (24) was also resistant to SVPD and calf spleen phosphodiesterase.
The half-life (T½) of 3′-CDU-, 3′,5′-CDU- and 3′CDU2-oligonucleotides were determined by kinetic study of their degradation by SVPDE (snake venom phosphodiesterase). Aliquots of enzymatic reaction (0, 5, 10, 20, 40, 80 and 240 minutes) were analyzed by HPLC. Calculations of half life time were based on the disappearance of 12-mer (or 11-mer in the case of CDU-modified oligos) after standardization with 2′-deoxycytidine used as internal standard.

In another data set the test system is polyriboadenylic acid. Description: Melting temperature (Tm) of duplexes with polyriboadenylic acid. In kind it is binding. The note with it: polyriboadenylic acid as target; PIPES buffer at 120 mM NaCl.
The next data set has as its system d(A)12. Description: Melting temperature (Tm) of duplexes with d(A)12. It is filed as binding. The following applies: for Tm: d(A)12 as complementary strand, 1:1, PIPES buffer at 120 mM NaCl. As to the method: Melting Temperature (Tm) Measurements. Samples for Tm measurements were prepared by the addition of concentrated stock solutions of the d(T)12 (18) or CDU modified d(T)12 (19-24) and d(A)12stock solution to 1.0 mL 10 mM 1,4-piperazine-bis-(ethane-sulfonic acid) (PIPES) buffer (pH 7.0) containing 100 mM NaCl, and 1 mM EDTA, in amounts to give a 1:1 ratio. Each strand was present at 40 μM. Molar extinction coefficients ε260 (per base) were calculated as following: 18: 8,150; d(A)12: 12,280; 19-24: 8,200. The samples were heated to 85° C. and cooled slowly to room temperature before melting. The insulated cell compartment of the UV spectrophotometer was continuously warmed from 0° C. to 85° C. at the rate 0.5° C. per minute. Samples were heated in quartz cuvettes fitted with a teflon stopper (1 cm path length). The absorption change at 260 nm was followed as a function of temperature, and Tm values were obtained from first derivative plots after the data were transferred to a Macintosh computer for visualization and analysis.

“Also recorded” adds a separate entry of the source.

“5′-AATACATGG(CDU)(CDU)GATTTGTAT-3′ [RL-2]”: the amino acid change result with YMDD motif of HIV-1 RT was “YMDD to YRVD”.
In the case of 5′-AATACATGGA(CDU)GATTTGTAT-3′ [RL-1], in the data set on YMDD motif of HIV-1 RT, the “clones in which the mutation occurred next to the base opposite to CDU on the complimentary strand” value is given as 60% and the amino acid change entry is “YMDD to YMVD; also recorded: YMDD to YMGD”.
In the case of 5′CDUd(T)9CDUd(T) [Oligomer 24], the “resistance to calf spleen phosphodiesterase” value in data set [1] is “resistant”. Further, the “% remaining” value was determined as 100% in data set [2] (time 0 min), 56.2% in data set [2] (time 5 min), 38.1% in data set [2] (time 10 min) and 14.8% in data set [2] (time 40 min). In data set [2], the T½ is given as 5.06 min. The “resistance towards 3′-exonucleolytic activity (SVPD)” value in data set [2] (in words) is listed as “resistant”. Besides, the Tm was 17.0 °C in the data set with polyriboadenylic acid and 20.0 °C in the data set with d(A)12.
On to 5′CDUd(T)11 [Oligomer 19], for which the Tm amounted to 28.0 °C with d(A)12 (listed as 19) and 28.8 °C in the data set with d(A)12 (listed as CDU(dT)11).
5′d(T)6CDUd(T)5 [Oligomer 21]: the Tm with d(A)12 worked out at 15.2 °C.
With 5′d(T)9(CDU)2d(T) [Oligomer 23], the “% remaining” value in data set [2] (time 0 min) turned out to be 100%; in data set [2] (time 5 min), 82.0%; in data set [2] (time 20 min) it was 80.0%; in data set [2] (time 40 min), 78.9%; in data set [2] (time 80 min), 54.0%; in data set [2] (time 240 min) it was 10.5%. This substance yielded a T½ in data set [2] of 76.2 min. In addition, the Tm in the data set on polyriboadenylic acid is 10.0 °C; in the data set on d(A)12 it was 15.3 °C.
Take 5′d(T)10CDUd(T) [Oligomer 22]: the “% remaining” value in data set [2] (time 0 min) was found to be 100%; in data set [2] (time 5 min), 54.8%; in data set [2] (time 10 min), 44.0%; in data set [2] (time 20 min), 38.3%; in data set [2] (time 40 min) it was 23.2%; in data set [2] (time 80 min) it was 11.0%. The T½ in data set [2] is on record as 6.7 min. In the data set on d(A)12 (between oligonucleotides 20 and 22), the “difference in Tm” value was 7-8 °C. Further, the Tm in the data set on d(A)12 came out at 20.5 °C.
5′d(T)CDUd(T)10 [Oligomer 20]: the Tm in the data set with polyriboadenylic acid came out at 25.7 °C; in the data set on d(A)12, 27.2 °C.
As to “d(T)12 [Oligomer 18, reference compound]”, the “% remaining” value in data set [2] (time 0 min) is 100%; in data set [2] (time 5 min) it was 9.1%; in data set [2] (time 10 min), 2.6%. This substance had a T½ in data set [2] of 0.5 min. Also, the values for the Tm in the data set with polyriboadenylic acid and with d(A)12 were 30.0 °C and 29.0 °C, respectively.
